Measurements: US20240269298A1, “PHOSPHONYL DERIVATIVE, AND COMPOSITION AND PHARMACEUTICAL APPLICATION THEREOF” (XIZANG HAISCO PHARMACEUTICAL CO., LTD., priority 2021, published 2024)
Read-outs that look alike come from different tables or passages of the source.

Tests used:
[1] = test system: NCI-H1975 (EGFR-L858R-T790M) cells; assay: Inhibitory activity on proliferation of NCI-H1975 (EGFR-L858R-T790M) cells (CTG, 72 h); format: cell-based; conditions: Homo sapiens
Procedure, shortened: (§1)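 Cells plated at 1000/well (NCI-H1975, RPMI1640+10% FBS) or 3000/well (A431, DMEM+10% FBS), dosed next day with compounds (0.1% DMSO final) for 72 h at 37 °C, 5% CO2. Viability by CTG luminescence, normalised to vehicle control; IC50 from nonlinear-regression dose-survival curves.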

A431 (EGFR-WT) cells = assay: Inhibitory activity on proliferation of A431 (EGFR-WT) cells (CTG, 72 h); format: cell-based; conditions: Homo sapiens, A-431
Procedure, shortened: as §1

[2] = molecular target: T1, EGFR protein in NCI-H1975 EGFR-L858R-T790M-C797S cells (Homo sapiens, UniProt P00533, C797S/L858R/T790M); assay: Degradation activity on EGFR protein in NCI-H1975 EGFR-L858R-T790M-C797S cells, Method I (western blot, 72 h); format: cell-based; conditions: 72 h incubation, EGFR protein relative to DMSO control
T1 construct: expressed in transfected cells; host or cells: NCI-H1975 EGFR-L858R-T790M-C797S (kept under hygromycin selection)
Method: Protein sample preparation: NCI-H1975 EGFR-L858R-T790M-C797S cells were cultured in an incubator at 37° C. with 5% CO2, and the culture medium was RPMI1640+10% FBS+100 μg/mL hygromycin. The cells in the logarithmic phase were collected, and the cell suspension was adjusted to an appropriate concentration with a hygromycin-free culture medium, plated on a 6-well plate at a density of 200000 cells/well and a volume of 2 mL, and cultured overnight in an incubator at 37° C. with 5% CO2. The next day, the compounds at different concentrations were added. DMSO control wells were provided, wherein the concentration of DMSO in all wells was 0.1%. The 6-well plate was cultured in an incubator at 37° C. with 5% CO2 for 72 h, and then 30 μL of RIPA lysates (Beyotime, Cat. P0013B) containing protease inhibitors (Beyotime, Cat. P0013B) were added. The mixtures were lysed on ice for 30 min. Centrifugation was carried out at 13000 rpm/min at 4° C. for 20 min to collect protein supernatant samples, and protein quantification was performed by the BCA method. Samples for western blot detection were prepared.
Western blot detection: 20 μg of protein samples were added to each well, subjected to polyacrylamide gel electrophoresis and transferred to a membrane, and then diluted anti-EGFR (CST, Cat. 4267S) and […] (Kangchen, Cat. KC-5G4) antibodies were added and incubated overnight at 4° C. After washing the membrane, diluted goat anti-rabbit (Licor, Cat. 926-32211) and goat anti-mouse (Licor, Cat. 926-68070) antibodies were added and incubated in the dark for 45 min. Scanning and detection at wavelengths of 700 nm and 800 nm were performed with a far-infrared imaging system (Odyssey).
According to formula (3), the expression level of EGFR protein in the cells relative to the DMSO control group was calculated after incubation with different concentrations of compounds. wherein EGFRcompound was the fluorescence value of EGFR protein after incubation with compounds, and EGFRvehicle was the fluorescence value of EGFR protein in the DMSO control group. Using the Origin 9.2 software, the drug concentration DC50 values when the expression level of EGFR protein was 50% relative to the DMSO control group were calculated.

[3] = Pharmacokinetic test in mice; format: in vivo; conditions: male, ICR, mouse, po, administration i.g. (10 mg/kg), plasma
Procedure, shortened: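 Male ICR mice (20-25 g), fasted 12-14 h before dosing and fed 4 h after, received a single intravenous or intragastric dose. Orbital plasma sampled from 0 to 24 h (5 min-24 h points); LC-MS/MS quantitation for PK parameters and bioavailability.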

[4] = test system: NCI-H1975 EGFR-L858R-T790M-C797S cells; assay: Inhibitory activity on proliferation of NCI-H1975 EGFR-L858R-T790M-C797S cells (CellTiter-Glo, 72 h); format: cell-based; conditions: Homo sapiens
Method: NCI-H1975 EGFR-L858R-T790M-C797S cells were cultured in an incubator at 37° C. with 5% CO2, and the culture medium was RPMI1640+10% FBS+100 μg/mL hygromycin. The cells in the logarithmic phase were collected, and the cell suspension was adjusted to an appropriate concentration with a hygromycin-free culture medium, and then plated on a 96-well plate at a density of 1500 cells/well and a volume of 90 μL. 10 μL of the compounds at different concentrations were added, and a vehicle control group (cells plus DMSO) was provided, wherein the concentration of DMSO was 0.1%. The cell culture plate was cultured in an incubator at 37° C. with 5% CO2 for 72 hours. After the incubation was completed, according to operation instructions for a CellTiter-Glo kit (Promega, G7572), 50 μL of CTG solution, which was already pre-melted and equilibrated to room temperature, was added to each well, and the mixtures were uniformly mixed for 2 min using a microplate shaker. The plate was placed at room temperature for 10 min, and then […] signal values were measured using a microplate reader (Envision 2104). […] was processed based on formula (2), and using the GraphPad Prism 5.0 software and nonlinear regression model, S-shaped dose-survival curves were plotted, and IC50 values were calculated. wherein Vsample was the readout of the drug-treated group, and Vvehicle control was the readout of the control group.

[5] = read-out: IC50 (value in brackets)

T1 sequence (P00533 25-1210 T790M/C797S/L858R): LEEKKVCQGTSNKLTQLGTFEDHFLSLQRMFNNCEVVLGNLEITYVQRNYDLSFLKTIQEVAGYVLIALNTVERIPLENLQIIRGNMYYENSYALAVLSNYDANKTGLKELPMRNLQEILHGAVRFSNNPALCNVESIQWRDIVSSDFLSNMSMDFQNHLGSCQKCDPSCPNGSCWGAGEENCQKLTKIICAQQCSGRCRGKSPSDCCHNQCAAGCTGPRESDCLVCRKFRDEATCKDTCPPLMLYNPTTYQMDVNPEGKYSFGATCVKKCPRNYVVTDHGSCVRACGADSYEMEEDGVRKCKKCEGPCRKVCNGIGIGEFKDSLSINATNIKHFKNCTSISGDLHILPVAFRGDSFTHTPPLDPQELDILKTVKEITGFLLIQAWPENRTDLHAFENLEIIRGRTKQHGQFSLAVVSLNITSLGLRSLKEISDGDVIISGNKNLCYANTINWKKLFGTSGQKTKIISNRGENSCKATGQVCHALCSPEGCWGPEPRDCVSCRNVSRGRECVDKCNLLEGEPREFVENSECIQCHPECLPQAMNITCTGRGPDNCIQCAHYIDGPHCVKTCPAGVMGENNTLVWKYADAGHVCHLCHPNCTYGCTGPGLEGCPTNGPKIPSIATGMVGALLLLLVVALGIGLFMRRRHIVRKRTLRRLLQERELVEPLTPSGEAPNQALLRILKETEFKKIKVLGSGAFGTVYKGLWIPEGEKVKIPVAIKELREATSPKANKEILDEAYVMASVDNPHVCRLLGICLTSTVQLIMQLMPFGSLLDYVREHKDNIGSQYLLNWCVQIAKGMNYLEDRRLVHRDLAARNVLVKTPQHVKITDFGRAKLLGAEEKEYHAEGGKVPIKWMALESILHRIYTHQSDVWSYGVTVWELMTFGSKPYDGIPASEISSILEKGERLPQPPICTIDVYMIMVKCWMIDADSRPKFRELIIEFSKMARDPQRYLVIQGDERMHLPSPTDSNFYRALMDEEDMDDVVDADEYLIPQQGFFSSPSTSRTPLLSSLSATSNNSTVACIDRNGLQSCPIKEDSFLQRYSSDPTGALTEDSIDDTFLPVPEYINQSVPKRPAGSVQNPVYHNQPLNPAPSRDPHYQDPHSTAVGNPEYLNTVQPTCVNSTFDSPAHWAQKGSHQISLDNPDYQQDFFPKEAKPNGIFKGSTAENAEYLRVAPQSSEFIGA

| SMILES | IC50 ([1]; read-out: IC50 (class symbol)) | IC50 [1, 5] | IC50 (A431 (EGFR-WT) cells) | DC50 [2] | AUC [3] | half-life [3] | IC50 ([4]; read-out: IC50 (class symbol)) | IC50 ([4]; read-out: IC50 (value)) | AUC(0-t) [3] |
| --- | --- | --- | --- | --- | --- | --- | --- | --- | --- |
| COc1cc(N2CCN(CC3CCN(c4ccc5c(c4)C(=O)N(C4CCC(=O)NC4=O)C5=O)C3)CC2)c(-c2cnn(C)c2)cc1Nc1ncc(Cl)c(Nc2ccc(-c3ccccc3)cc2P(C)(C)=O)n1 (centres unmarked) [Compound 68, 5-(3-((4-(4-((5-chloro-4-((3-(dimethylphosphoryl)-[1,1′-biphenyl]-4-yl)amino)pyrimidin-2-yl)amino)-5-methoxy-2-(1-methyl-1H-pyrazol-4-yl)phenyl)piperazin-1-yl)methyl)pyrrolidin-1-yl)-2-(2,6-dioxopiperidin-3-yl)isoindoline-1,3-dione] | < 100 nM | 66 nM | ≥ 10000 nM | < 100 nM | 53200 ng·h/mL | 3.47 h | 200 to 500 nM | 280 nM |  |
| COc1cc(N2CCC3(CCN(CC4CCN(c5ccc6c(c5)C(=O)N(C5CCC(=O)NC5=O)C6=O)CC4)CC3)CC2)c(-c2cnn(C)c2)cc1Nc1ncc(Cl)c(Nc2ccc(-c3ccccc3)cc2P(C)(C)=O)n1 (centres unmarked) [Compound 59, 5-(4-((9-(4-((5-chloro-4-((3-(dimethylphosphoryl)-[1,1′-biphenyl]-4-yl)amino)pyrimidin-2-yl)amino)-5-methoxy-2-(1-methyl-1H-pyrazol-4-yl)phenyl)-3,9-diazaspiro[5.5]undecan-3-yl)methyl)piperidin-1-yl)-2-(2,6-dioxopiperidin-3-yl)isoindoline-1,3-dione] | < 100 nM | 92 nM | ≥ 10000 nM | < 100 nM |  |  |  |  | 4460 ng·h/mL |
| COc1cc(N2CCC(N3CCC4(CCCN(c5ccc6c(c5)C(=O)N(C5CCC(=O)NC5=O)C6=O)C4)CC3)CC2)c(-c2cnn(C)c2)cc1Nc1ncc(Br)c(Nc2ccc(-c3ccccc3)cc2P(C)(C)=O)n1 (centres unmarked) [Compound 62, 5-(9-(1-(4-((5-bromo-4-((3-(dimethylphosphoryl)-[1,1′-biphenyl]-4-yl)amino)pyrimidin-2-yl)amino)-5-methoxy-2-(1-methyl-1H-pyrazol-4-yl)phenyl)piperidin-4-yl)-2,9-diazaspiro[5.5]undecan-2-yl)-2-(2,6-dioxopiperidin-3-yl)isoindoline-1,3-dione] | < 100 nM | 28 nM | ≥ 10000 nM | < 100 nM |  |  |  |  | 2310 ng·h/mL |
| COc1cc(N2CCC(N3CCN(CC4CCN(c5ccc6c(c5)C(=O)N(C5CCC(=O)NC5=O)C6=O)CC4)CC3)CC2)c(C2CC2)cc1Nc1ncc(Br)c(Nc2ccc3nccnc3c2P(C)(C)=O)n1 (centres unmarked) [Compound 2, 5-(4-((4-(1-(4-((5-bromo-4-((5-(dimethylphosphoryl)quinoxalin-6-yl)amino)pyrimidin-2-yl)amino)-2-cyclopropyl-5-methoxyphenyl)piperidin-4-yl)piperazin-1-yl)methyl)piperidin-1-yl)-2-(2,6-dioxopiperidin-3-yl)isoindoline-1,3-dione] | 100 to 500 nM | 151 nM | ≥ 10000 nM | < 100 nM |  |  | 200 to 500 nM | 299 nM |  |
| COc1cc(N2CCC(N3CCN(CC4CCN(c5ccc6c(c5)C(=O)N(C5CCC(=O)NC5=O)C6=O)CC4)CC3)CC2)c(-c2cnn(C)c2)cc1Nc1ncc(Br)c(Nc2ccc(-c3ccccc3)cc2P(C)(C)=O)n1 (centres unmarked) [Trifluoroacetate of compound 23, 5-(4-((4-(1-(4-((5-bromo-4-((3-(dimethylphosphoryl)-[1,1′-biphenyl]-4-yl)amino)pyrimidin-2-yl)amino)-5-methoxy-2-(1-methyl-1H-pyrazol-4-yl)phenyl)piperidin-4-yl)piperazin-1-yl)methyl)piperidin-1-yl)-2-(2,6-dioxopiperidin-3-yl)isoindoline-1,3-dione] | < 100 nM | 41 nM | ≥ 10000 nM | < 100 nM |  |  | < 200 nM | 83 nM |  |

Results, then the molecule that gave them:

| IC50 ([1]; read-out: IC50 (class symbol)) | IC50 [1, 5] | IC50 (A431 (EGFR-WT) cells) | DC50 [2] | AUC [3] | half-life [3] | IC50 ([4]; read-out: IC50 (class symbol)) | IC50 ([4]; read-out: IC50 (value)) | AUC(0-t) [3] | SMILES |
| --- | --- | --- | --- | --- | --- | --- | --- | --- | --- |
| < 100 nM | 48 nM | ≥ 10000 nM | < 100 nM | 33300 ng·h/mL | 2.49 h | < 200 nM | 84 nM |  | COc1cc(N2CCN(C3CCN(c4ccc5c(c4)C(=O)N(C4CCC(=O)NC4=O)C5=O)CC3)CC2)c(-c2cnn(C)c2)cc1Nc1ncc(Cl)c(Nc2ccc(-c3ccccc3)cc2P(C)(C)=O)n1 (centres unmarked) [Compound 100, 5-(4-(4-(4-((5-chloro-4-((3-(dimethylphosphoryl)-[1,1′-biphenyl]-4-yl)amino)pyrimidin-2-yl)amino)-5-methoxy-2-(1-methyl-1H-pyrazol-4-yl)phenyl)piperazin-1-yl)piperidin-1-yl)-2-(2,6-dioxopiperidin-3-yl)isoindoline-1,3-dione] |
| < 100 nM | 38 nM | ≥ 10000 nM | < 100 nM |  |  | < 200 nM | 32 nM | 21700 ng·h/mL | COc1cc(N2CCC(CN3CCC4(CC3)CCN(c3ccc5c(c3)C(=O)N(C3CCC(=O)NC3=O)C5=O)CC4)CC2)c(-c2cnn(C)c2)cc1Nc1ncc(Br)c(Nc2ccc(-c3ccccc3)cc2P(C)(C)=O)n1 (centres unmarked) [Compound 37, 5-(9-((1-(4-((5-bromo-4-((3-(dimethylphosphoryl)-[1,1′-biphenyl]-4-yl)amino)pyrimidin-2-yl)amino)-5-methoxy-2-(1-methyl-1H-pyrazol-4-yl)phenyl)piperidin-4-yl)methyl)-3,9-diazaspiro[5.5]undecan-3-yl)-2-(2,6-dioxopiperidin-3-yl)isoindoline-1,3-dione] |
| < 100 nM | 34 nM | ≥ 10000 nM | < 100 nM |  |  |  |  | 3200 ng·h/mL | COc1cc(N2CCC(N3CCC4(CCCN(c5ccc6c(c5)C(=O)N(C5CCC(=O)NC5=O)C6=O)C4)CC3)CC2)c(-c2cnn(C)c2)cc1Nc1ncc(Cl)c(Nc2ccc(-c3ccccc3)cc2P(C)(C)=O)n1 (centres unmarked) [Compound 60, 5-(9-(1-(4-((5-chloro-4-((3-(dimethylphosphoryl)-[1,1′-biphenyl]-4-yl)amino)pyrimidin-2-yl)amino)-5-methoxy-2-(1-methyl-1H-pyrazol-4-yl)phenyl)piperidin-4-yl)-2,9-diazaspiro [5.5]undecan-2-yl)-2-(2,6-dioxopiperidin-3-yl)isoindoline-1,3-dione] |
| < 100 nM | 21 nM | ≥ 10000 nM | < 100 nM |  |  | < 200 nM | 65 nM |  | COc1cc(N2CCC3(CCN(CC4CCN(c5ccc6c(c5)C(=O)N(C5CCC(=O)NC5=O)C6=O)CC4)CC3)CC2)c(-c2cnn(C)c2)cc1Nc1ncc(Br)c(Nc2ccc(-c3ccccc3)cc2P(C)(C)=O)n1 (centres unmarked) [Compound 57, 5-(4-((9-(4-((5-bromo-4-((3-(dimethylphosphoryl)-[1,1′-biphenyl]-4-yl)amino)pyrimidin-2-yl)amino)-5-methoxy-2-(1-methyl-1H-pyrazol-4-yl)phenyl)-3,9-diazaspiro[5.5]undecan-3-yl)methyl)piperidin-1-yl)-2-(2,6-dioxopiperidin-3-yl)isoindoline-1,3-dione] |
